The text below walks through data of publication PMC7900953, “Location of a single histidine within peptide carriers increases mRNA delivery” (The Journal of Gene Medicine, 2020).

A short description of series [1]: Particle size, polydispersity index (PDI) and zeta potential of polyplexes (dynamic light scattering). It is filed as physicochemical. To be noted: HK peptide (4 μg) + mRNA (1 μg), 25°C; for Zeta potential of polyplex / Size of polyplex: mean ± SD of three measurements; for Size of polyplex: DLS 90°, z‐average; for PDI of polyplex: DLS. On the procedure: The size, PDI and zeta potential were determined with the Zetasizer (Malvern, Westborough, MA, USA) and analyzed with Zetasizer, version 6.2 (Malvern). Using dynamic light scattering at a 90° angle, the size of the particles were reported as the z‐average diameter from the intensity‐weighted size distribution. Prior to the measurements, the samples were equilibrated to 25°C for 2 minutes. Each measurement had at least 10 sub‐runs under the automatic mode of the software. The particle size, PDI and zeta potential data point represent the mean ± SD of three measurements. After mixing HK peptides (4 μg) and mRNA (1 μg) in 100 μl of defined media (Opti‐MEM, water, or DMEM/8% FBS) for 30 minutes, 100 μl of additional defined media was added to the polyplex solution (total volume 200 μl) to measure the size and PDI. To determine the zeta potential, 800 μl more of the media was added (total volume 1000 μl), mixed gently and then added to the disposable zeta cell.

For series [2] the following is noted: cited from earlier work.
A short description of series [3]: Acid–base titration. It is filed as physicochemical. As to conditions: 5 mg/ml, from pH 3.0, 5 μl aliquots of 0.05 M NaOH to about pH 9.0. Here is the method: After the polymer solution [H2K4b, H3K4b, H3K(+H)4b and H4K4b] was adjusted to pH 3.0 (5 mg/ml; initial volume 1 ml), aliquots (5 μl) of NaOH (0.05 M) were stepwise added with the pH measured (FiveEasy™ meter; InLab Solids Pro‐ISM pH electrode; Mettler Toledo, Columbus, OH, USA). Titration was stopped at approximately pH 9.0.
FIGURE 2 Titration of different HK peptide solutions. Solutions of polymers (5 mg/ml) [H2K4b, H3K4b, H3K(+H)4b and H4K4b] were adjusted to pH 3 (initial volume 1 ml) and then 5‐μl aliquots of 0.05 N NaOH were stepwise added and the pH was measured

Series [4] deals with MDA‐MB‐231 cells. The experiment in a line: In vitro transfection of luciferase-expressing mRNA with HK polyplexes. The series is classed as cell-based. As to conditions: for Effectiveness as carrier of mRNA: luciferase mRNA polyplexes; for Luciferase activity, RLU/µg-Protein: polyplex in Opti-MEM on cells 4 h, then DMEM/10% serum, luciferase 24 h later, mean ± SD. Here is the method: Several HK peptides were examined for their ability to carry a luciferase‐expressing mRNA (CleanCap Firefly Luciferase mRNA; Trilink Biotechnologies, Inc., San Diego, CA, USA) into MDA‐MB‐231 cells (America Type Tissue Culture, Manassas, VA, USA). In brief, 3 × 10^4 cells were plated into a 24‐well plate containing 500 μl of Dulbecco’s modified Eagle’s medium (DMEM) and 10% fetal bovine serum (Thermo Fisher Scientific, Waltham, MA, USA). After 24 hours, when the cells were 60–80% confluent, the media in each well was changed to Opti‐MEM (Thermo Fisher Scientific). To prepare HK polyplexes, mRNA (1 μg) in 50 μl of Opti‐MEM was briefly mixed well with one of the HK peptides (4–12 μg) and maintained at room temperature for 30 minutes. This polyplex was then added dropwise to the cells. After 4 hours, the Opti‐MEM media was removed and replaced with 0.5 ml of DMEM/10% serum. Twenty‐four hours later, the cells were lysed, and luciferase activity (Promega Corporation, Madison, WI, USA) was measured. ^28 Also, a negative control (mRNA without the carrier) was added to the cells and luciferase activity measured 24 hours later.
FIGURE 1 Comparison of H3K(+H)4b and H3K4b peptides as carriers of mRNA. To form polyplexes, the mRNA (1 μg) was mixed with three different ratios of the HK (4, 8 and 12 μg) polymer for 30 minutes. The mRNA polyplexes were then added to the cells as described in the Materials and methods, and luciferase activity was measured 24 hours later. ***p < 0.001; ****p < 0.0001, H3K(+H)4b versus H3K4b
FIGURE 6 Comparing H3K(+H)4b and other four‐branched HK peptides for mRNA transfection. After polyplexes were formed with HK peptides (4 μg) and luciferase‐expressing mRNA (1 μg) and added to cells, luciferase activity was measured […] later. These HK peptides contained an additional histidine in the second motif.
FIGURE 7 Comparison of H3K(+H)4b with branched peptides without an additional histidine in the second motif. Polyplexes were formed with mRNA (1 μg) and various HK peptides (4 μg) and, after their addition to cells, luciferase activity was determined 24 h later. H3K(1+H)4b and H3K(3+H)4b peptides have an extra histidine in the first and third domains, respectively. H3K(1,3+H)4b has two additional histidines: one in the first and the other third motif. […] Unlike H3K(+H)4b, the predominant repeating motif of H2K4b in its branch is ‐HHK. ***p < 0.001, H3K(+H)4b versus H2K4b or H3K(1,3+H)4b; ****p < 0.0001, H3K(+H)4b versus H3K(1+H)4b or H3K(3+H)4b motifs
To prepare HK polyplexes, luciferase-expressing mRNA (1 µg) in 50 µl of Opti-MEM was briefly mixed with one of the HK peptides (4, 8, or 12 µg) and maintained at room temperature for 30 min. This polyplex was then added dropwise to the MDA-MB-231 cells and after four h, the Opti-MEM media was removed and replaced with DMEM/10% serum. Twenty-four hours later, luciferase activity was measured.

Series [5] concerns MDA‐MB‐231 cells. The experiment in a line: Cell viability assay (trypan blue exclusion). The series is classed as cell-based. To be noted: polymer alone (4 µg), 5 h in Opti-MEM, then DMEM/10% FBS 19 h. Here is the method: MDA‐MB‐231 cells were seeded at 5.0 × 10^4 per well in a 24‐tissue culture plate and incubated overnight in DMEM supplemented with 10% fetal bovine serum (FBS) serum. The media was then changed to Opti‐MEM and the cells were treated with either the polymer (4 μg) or the polyplex (4 μg of HK; 1 μg of mRNA) for 5 hours. After the media was changed to DMEM/10% FBS for 19 hours, the cell viability was measured using the trypan blue cell exclusion assay (Trypan Blue solution, 0.4%; Sigma‐Aldrich, St Louis, MO, USA). ^41
After the medium was changed to Opti-MEM, either the polymer (4 µg) or the polyplex (4 µg HK; 1 µg mRNA) was added to the cells for 5 h. The media was then changed to DMEM/10% FBS for 19 h and the cell viability was determined using the trypan cell exclusion assay.

Setting [6] is: ratio 1:4 (wt:wt; mRNA:polymer; 1 µg mRNA, 4 µg HK).
Setting [7] is: ratio 1:8 (wt:wt; mRNA:polymer; 1 µg mRNA, 8 µg HK).
[8] abbreviates: ratio 1:12 (wt:wt; mRNA:polymer; 1 µg mRNA, 12 µg HK).

On to “R = KHHHKHHHKHHHHKHHHK [H3K(+H)4b, four‐branched analogue of H3K4b with one extra histidine in the second ‐HHHK‐ motif]”, for which the “Zeta potential of polyplex” value in series [1] (DMEM/8%FBS) is reported as −12.7 ± 1.04 mV; in series [1] (Opti‐MEM) it was 2.92 ± 1.83 mV; in series [1] (Water), 20.77 ± 1.12 mV. The Size of polyplex is listed as 289 ± 38.2 nm in series [1] (DMEM/8%FBS), 1,004 ± 61.1 nm in series [1] (Opti‐MEM) and 234.9 ± 2.7 nm in series [1] (Water). The PDI of polyplex came out at 0.307 in series [1] (DMEM/8%FBS), 0.362 in series [1] (Opti‐MEM) and 0.212 in series [1] (Water). In series [2], the “Carrier of siRNA” value is recorded as “effective carriers of siRNA”. Further, in series [3], the “Buffering profile from pH titration curves” value was “minimal differences in their buffering profile”. For the same substance, in series [4] (fold greater, ratio 4:1 (HK:mRNA; w:w)), the “Luciferase expression relative to H3K4b peptide” value came to 10 fold. In addition, the “Effectiveness as carrier of mRNA” value in series [4] was “effective carriers of mRNA”. The “Luciferase activity, RLU/µg-Protein” value worked out at 1532.9±122.9 RLU/µg-Protein in series [4] (setting [6]), 1656.3±202.5 RLU/µg-Protein in series [4] (setting [7]) and 1033.4±197 RLU/µg-Protein in series [4] (setting [8]). The “% Viability” value in series [5] stood at 96.3%.
“R = KHHHKHHHKHHHKHHHK [H3K4b, four‐branched histidine‐lysine peptide with four ‐HHHK‐ motifs in each branch]”: the entries for the “Zeta potential of polyplex” value in series [1] (DMEM/8%FBS), in series [1] (Opti‐MEM) and in series [1] (Water) were −12.1 ± 2.22 mV, −4.20 ± 2.78 mV and 16.47 ± 0.74 mV, respectively. Moreover, the results for the Size of polyplex in series [1] (DMEM/8%FBS), in series [1] (Opti‐MEM) and in series [1] (Water) were 578 ± 80.5 nm, 2,030.7 ± 117.3 nm and 199.9 ± 0.8 nm, respectively. For the same substance, the PDI of polyplex in series [1] (DMEM/8%FBS) was 0.421; in series [1] (Opti‐MEM), 0.466; in series [1] (Water) it was 0.171. The “Carrier of siRNA” value in series [2] was “effective carriers of siRNA”. Moreover, the “Buffering profile from pH titration curves” value in series [3] is reported as “minimal differences in their buffering profile”. Moreover, in series [4], the “Effectiveness as carrier of mRNA” value is on record as “not effective carriers of mRNA”. Further, the “Luciferase activity, RLU/µg-Protein” value in series [4] (setting [6]) is 156.8±41.8 RLU/µg-Protein; in series [4] (setting [7]), 62.1±13.2 RLU/µg-Protein; in series [4] (setting [8]), 18.1±4.0 RLU/µg-Protein. Moreover, the “% Viability” value in series [5] is 95.6%.
